The values below come from patent US20260174769A1, “MACROCYCLIC COMPOUNDS AND METHODS OF USE” (AMGEN INC., priority 2022, published 2026).

Each structure is given as a SMILES string. Read-outs that look alike come from different tables or passages of the source.

The conditions of series [1]: 16-membered ring.
Series [2] has as its system AsPC-1 cells. The series can be described thus: AsPC-1 CTG Assay (CellTiter-Glo cell viability, 72 h). The series is classed as cell-based, human. The settings on record: read-out: G12D/C/V Cell Proliferation CTG (72 h) AsPC-1. How it is done:
(§1) AsPC-1 and SW620 CTG Assay Protocols
(§2) Serially-diluted compound or DMSO was added to the cells, and plates were incubated at 37° C., 5% CO2 for 72 h. Cell viability was measured using a CellTiter-Glo® Luminescent Cell Viability Assay kit (Promega) according to the manufacturer's protocol. The luminescence signal of treated samples was normalized to DMSO control, and data were analyzed using a 4-parameter logistic model to calculate IC50 values.
For orientation: In ATP-based viability assays light output follows the ATP content of the culture.

Series [3] has as its system Phosphorylation of ERK1/2 in AsPC-1 cells. Briefly: Phospho-ERK1/2 MSD Assay. The series is classed as cell-based, human. The note with it: read-out: 2 h p-ERK (AsPC-1 cells), IC50. How it is done: Sixteen hours prior to compound treatment, AsPC-1 cells were seeded in 96-well cell culture plates at a density of 25,000 cells/well and incubated at 37° C., 5% CO2. A compound dose-response titration was diluted in growth media, added to appropriate wells of a cell culture plate, and then incubated at 37° C., 5% CO2 for 2 hours. […] Phosphorylation of ERK1/2 in compound-treated lysates was assayed using Phospho-ERK 1/2 Whole Cell Lysate kits (Meso Scale Discovery K151DWD) according to the manufacturer's protocol. Assay plates were read on a Meso Scale Discovery Sector Imager 6000, and data were analyzed using a 4-parameter logistic model to calculate IC50 values.

For series [4], the system named is MIA PaCa-2 cells. The series can be described thus: MIA PaCa-2 CTG Assay (CellTiter-Glo cell viability, 72 h). The settings on record: second value of cell, read-out: G12D/C/V Cell Proliferation CTG (72 h) Mia PaCa-2. The series is classed as cell-based, human. How it is done: MIA PaCa-2 CTG Assay Protocol
as §2

The test system of series [5] is phospho-ERK1/2 in PANC 04.03 tumors. Briefly: Tumor Pharmacodynamic Assay (p-ERK inhibition in PANC 04.03 tumor-bearing mice). The series is classed as in vivo. The settings on record: PANC 04.03 tumor-bearing female athymic nude mice; single oral dose 100 mg/kg; tumors harvested 2 hours later; p-ERK1/2 normalized to total ERK1/2, relative to vehicle group. How it is done: Tumor Pharmacodynamic Assays
Inhibitor pharmacodynamic effects were assessed in PANC 04.03 tumor-bearing mice. PANC 04.03 tumor cells (5.0E+06 cells) were injected subcutaneously into the flank of female athymic nude mice in a mixture with Matrigel (BD Bioscience). Mice received a single oral dose of either vehicle or inhibitors (100 mg/kg) when the average tumor size reached ˜300-600 mm^3 (n=3/group) and harvested 2 hours later. Tumor samples were collected, snap frozen, and processed for analysis by pulverizing with a cryoPREP® Dry Impactor (Covaris). Pulverized samples were resuspended in RIPA lysis buffer containing protease and phosphatase inhibitors and homogenized. Cleared lysates were analyzed using phospho-ERK1/2 and total ERK1/2 whole cell lysate kits (Meso Scale Discovery) according to the manufacturer's protocol. Phospho-ERK1/2 signal was normalized to total ERK1/2 signal for a given sample, and percent inhibition of p-ERK was calculated relative to the vehicle group.

Series [6] deals with SW620 cells. The series can be described thus: SW620 CTG Assay (CellTiter-Glo cell viability, 72 h). The series is classed as cell-based. The note with it: Homo sapiens, SW-620, third value of cell, read-out: G12D/C/V Cell Proliferation CTG (72 h) SW620. How it is done:
as §1
as §2, with “AsPC-1 (human pancreatic adenocarcinoma; ATCC CRL-1682) or SW620 (human colon adenocarcinoma; ATCC CCL-227) cells were cultured in RPMI 1640 medium containing 10% fetal bovine serum and 1× penicillin/streptomycin/L-glutamine. Cells were seeded in 384-well plates at a density of 3.33E+04 cells/mL and incubated at 37° C., 5% CO2, overnight. Serially-diluted” for “Serially-diluted”

In series [7] the target is His-tagged KRAS G12D protein (Homo sapiens, UniProt P01116, G12D). The series can be described thus: KRAS G12D TR-FRET Assay. The series is classed as binding. The note with it: TR-FRET binding. Summed up:
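GDP-loaded His-KRAS G12D (20 nM in HEPES pH 7.4, MgCl2, NaCl, BSA, Tween-20, 10 μM GDP) preincubated with compound 30 min at room temperature, then 20 nM biotinylated KRPep-2d peptide added for 1 h. TR-FRET detection used Eu anti-His and streptavidin-d2, read after 1 h.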
A general note: TR-FRET usually uses a lanthanide donor and a delayed reading to cut background.

For series [8] the following is noted: from CN[C@@H]1CCCN(c2nc(OC[C@@]34CCCN3C[C@H](F)C4)nc3cc(-c4c(CCCCC(=O)O)c(Cl)cc5[nH]ncc45)nnc23)C1; amide bond; 16-membered ring; EDCI/HOBt/DIEA; DCM; 10.3 mM; 25.0 °C; 36.0 h; 3 steps.
[9] abbreviates: Homo sapiens, ASPC1, 72 h, AsPC-1 cells, 72 h, first value of cell.
Where [10] appears, read: Homo sapiens, ASPC1, 2 h, AsPC-1 cells, 2 h compound treatment.

Chain of His-tagged KRAS G12D protein (P01116 1-188 isoform P01116-2 G12D): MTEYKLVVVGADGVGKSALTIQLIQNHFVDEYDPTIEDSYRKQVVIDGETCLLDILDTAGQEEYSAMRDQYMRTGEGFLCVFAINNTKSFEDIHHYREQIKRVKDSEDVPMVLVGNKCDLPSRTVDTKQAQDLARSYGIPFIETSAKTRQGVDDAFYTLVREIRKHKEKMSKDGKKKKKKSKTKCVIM

In the case of `Cc1cc2c(cnn2C2CCCCO2)c2c1CCCCC(=O)N[C@@H]1CCCN(C1)c1nc(OC[C@@]34CCCN3C[C@H](F)C4)nc3c(F)c-2ncc13` (stereo partly shown), in series [1] (from Cc1cc2c(cnn2C2CCCCO2)c(-c2ncc3c(N4CCC[C@@H](N)C4)nc(OC[C@@]45CCCN4C[C@H](F)C5)nc3c2F)c1CCCCC(=O)O, amide bond, HATU/DIEA, DMA, 4.7 mM, 25.0 °C, 1.5 h), the ring closure, isolated yield was 22%.
For the compound `O=C1OCCc2c(Cl)cc3[nH]ncc3c2-c2ncc3c(nc(OC[C@@]45CCCN4C[C@H](F)C5)nc3c2F)N2CCO[C@]3(C2)C[C@H](C3)O1` [Example 248, (1R.3R)-10-chloro-32-fluoro-24-(((2R,7aS)-2-fluorotetrahydro-1H-pyrrolo[1,2-α]pyrrol-7a(SH)-yl)methoxy)-4,6,30-trioxa-1.3,14,19,23,25,27-hexaazaheptacyclo[25.3.1.1~1,3~.1~18,22~.0~9.17~.0~12,16~.0~21,26~]tritriaconta-9,11,14,16,18(32),19,21,23,25-nonaen-5-one], the IC50 was determined as 13 nM in series [2] (AsPC-1 cells, 72 h, first value of cell); 7.8 nM in series [3] (AsPC-1 cells, 2 h compound treatment); 7 nM in series [4]. Moreover, the “p-ERK (% inhibition) 2 hr.” value in series [5] came to 85%.
Regarding `C[C@@]12CCCCN(C1)c1nc(OC[C@@]34CCCN3C[C@H](F)C4)nc3c(F)c(ncc13)-c1c(c(Cl)cc3[nH]ncc13)CCCC(F)C(=O)N2` (mixture of isomers) [Example 281, (23RS,26R)-18-chloro-23,32-difluoro-4-(((2R,7aS)-2-fluorotetrahydro-1H-pyrrolo[1,2-a]pyrrol-7a(5H)-yl)methoxy)-26-methyl-1,3,5,9,14,15,25-heptaazahexacyclo[24.4.1.1~6,10~.0~2,7~.0~11,19~.0~12,16~]dotriaconta-2,4,6,8,10(32),11,13,16,18-nonaen-24-one], the IC50 in series [4] (Homo sapiens) is 90 nM.
As for `O=C1COCCCc2c(Cl)cc3[nH]ncc3c2-c2ncc3c(nc(OC[C@@]45CCCN4C[C@H](F)C5)nc3c2F)N2CC[C@H]3CCN1[C@H]3C2` [Example 168], the results for the IC50 in series [2] and in series [3] were 10 nM and 1.3 nM, respectively. Also, the “p-ERK (% inhibition) 2 hr.” value in series [5] is given as 65%.
In the case of `Fc1c2ncc3c(nc(OC[C@@]45CCCN4C[C@H](F)C5)nc13)N1CCC[C@]3(C1)C[C@H](C3)OCCCCc1c(Cl)cc3[nH]ncc3c1-2` [Example 260, (1S,3R)-10-Chloro-32-fluoro-24-(((2R,7aS)-2-fluorotetrahydro-1H-pyrrolo[1,2-a]pyrrol-7a(5H)-yl)methoxy)-4-oxa-13,14,19,23,25,27-hexaazaheptacyclo[25.3.1.1˜1,3˜.1˜18,22˜.0˜9,17˜.0˜12,16˜.0˜21,26˜]tritriaconta-9,11,14,16,18(32),19,21,23,25-nonaene bis(2,2,2-trifluoroacetate)], the IC50 in series [2] (setting [9]) is 40 nM; in series [3] (setting [10]) it was 3.2 nM; in series [4] (Homo sapiens) it was 26 nM; in series [6] it was 8 nM.
Regarding `O=C1COCCc2c(Cl)cc3[nH]ncc3c2-c2ncc3c(nc(OC[C@@]45CCCN4C[C@H](F)C5)nc3c2F)N2CC[C@H]3CCN1[C@H]3C2` [Example 270], the IC50 is 606 nM in series [2] (setting [9]), 7 nM in series [7], 123 nM in series [3] (setting [10]) and 675 nM in series [4] (Homo sapiens).
In the case of `Cc1cc2c(cnn2C2CCCCO2)c2c1CCCn1ncc(n1)C1CCCN(C1)c1nc(OC[C@@]34CCCN3C[C@H](F)C4)nc3c(F)c-2ncc13` (stereo partly shown), the ring closure, isolated yield in series [1] (from Cc1cc2c(cnn2C2CCCCO2)c(-c2ncc3c(N4CCCC(c5cn[nH]n5)C4)nc(OC[C@@]45CCCN4C[C@H](F)C5)nc3c2F)c1CCCCl, other bond, K2CO3/TBAI, MeCN, 6.9 mM, 85.0 °C, 3.0 h) is 31%.
For the compound `CN1C(=O)CCCCc2c(Cl)cc3[nH]ncc3c2-c2cc3nc(OC[C@@]45CCCN4C[C@H](F)C5)nc(c3nn2)N2CCC[C@@H]1C2`, the ring closure, yield after HPLC in series [8] worked out at 20%.
